Experiment [1] has as its system full depth incision in the skin. The experiment in a line: Wound healing in irradiated and wounded mice (histology, collagen type I immunohistochemistry). Conditions: 1 mg per mouse i.p. every other day, 14 days. Format: in vivo. How it is done:
The effect of Halofuginone on wound healing was examined by using mice which were first irradiated and then wounded.
The experiment was conducted as follows. First, C3H, defined-flora, pathogen-free female mice of 12-14 weeks of age were anesthetized with 60 mg/kg sodium […]. The mice were then shaved. One group of mice was then irradiated as follows. First, a flap of skin about 40 mm long and about 20 mm wide was pulled through a slit in the lead cover of an irradiation jig and secured with tape, so that only the flap of skin was exposed. This exposed skin as then irradiated by using a 175 kVp/20 mA orthovoltage X-ray source, with a 2 mm Cu filter at a dose rate of 1.0 Gy/min. A standard dose of 18 Gy was delivered.
All of the mice were then wounded by making a full depth incision, about 25 mm long, in the skin along the midline of the lower back. Note that for the irradiated animals, the wound was made within the irradiated area, immediately following irradiation. For all mice, the incision was immediately closed by 3-4 metallic wound closure clips which were removed 2 days later.
After wounding, the mice were injected i.p. every other day, either with 1 mg per mouse of Halofuginone or with saline as a control. […]

For experiment [2], the system named is collagen α1(I) gene. Kind of experiment: Collagen α1(I) gene expression at the stricture site (in situ hybridization, image analysis). Format: in vivo, rats. Conditions: after coagulation treatment, 3 biopsies for each type of treatment. How it is done:
The experiments were performed as follows. First, urethral catherization was performed on tile rats with a 23 G Quik-Cath (Baxter, Ireland) sheath. A spinal needle was inserted into the sheath, and was used to apply a coagulation current at a level of 10 W to the outer end of the needle for 1 second at three locations, 8, 10 and 12 mm from the meatus, in order to produce urethral strictures. Halofuginone was given for 7 days starting at the day of stricture formation, either orally at concentrations of 1 ppm and 5 ppm in the diet, or by injection of 0.03% Halofuginone dissolved in 2% lignocaine directly into the urethra once a day. After 21 days, the rats were sacrificed and the sutures were reopened to determine the level of urethral stricture formation, at which time biopsies of the tissue were taken. For hybridization with the genetic probe, the sections were deparafinized in xylene, rehydrated through a graded series of ethanol solutions, rinsed in distilled water for 5 minutes and then incubated in 2×SSC at 70° C. for 30 minutes. The sections were then rinsed in distilled water and treated with pronase, 0.125 mg/ml in 50 mM Tris-HCl, 5 mM EDTA, pH 7.5, for 10 minutes. Alter digestion, the slides were rinsed with distilled water, post-fixed in 10% formalin in PBS and blocked in 0.2% glycine. […] Alkaline phosphatase activity was detected in the sections as previously described [Knopov. […]

Experiment [3] has as its system skin wound. The experiment in a line: Wound strength (bursting point, Instron tensiometer). The class given is in vivo, rats. To be noted: irradiated or not; one or six injections. As to the method: Wound strength was assessed by preparing rats substantially as described above, except that one group of rats (not irradiated) only received one injection of Halofuginone after wounding. The strength of wounds was measured as follows. First, a square of skin which was approximately 20 mm long and 16 mm wide, and which included the main part of the wound, was excised from sacrificed rats. Next, the skin was cut, perpendicular to the wound, to yield 7 strips of skin, each of which was 2 mm wide. The skin strips were secured between paper reinforcement frames and loaded on an Instron tensiometer for stretching at a constant rate of 25 mm/min. The bursting point was then recorded.

Experiment [4] deals with collagen α1(I) gene. The experiment in a line: Northern blot of collagen α1(I) gene in urethral fibroblasts. Conditions: Northern blot analysis. The class given is cell-based, rat. As to the method: Next, total RNA was isolated using the guanidinium-thiocyanate-phenol technique (Chomczynski, P. and N. Sacchi, Anal. Biochem., 162:156, 1987). RNA was subjected to 1% agarose denaturing gel electrophoresis, followed by blotting onto a nylon filter (GeneScreen Plus, New England Nuclear, Boston, Mass., USA). The probe for the collagen α1(I) gene was labeled using the random primer procedure with a commercial kit (Boehringer, Germany). Hybridization was performed overnight at 40° C. in a solution containing 10% dextran sulfate, 1% SDS, 1 M NaCl, 40% formamide and […] denatured herring sperm DNA. Hybridization was followed by two 30-minute washes in 2×SSC (1×SSC contains 0.15 M NaCl and 0.015 M sodium citrate), 1% SDS, and two 20 minute washes in 1×SSC, 0.1% SDS. The filters were exposed to X-ray film (Agfa-Curix) at −70° C., using intensifying screens.

Take `O=C(CC1NCCC[C@H]1O)Cn1cnc2cc(Br)c(Cl)cc2c1=O` (some centres unmarked) [Halofuginone]: in experiment [1] (irradiated mouse (18 Gy)), the “collagen content in the wound” value was “significantly lowered”. Besides, in experiment [1] (wounded and irradiated skin), the “healing of the wound” value is reported as “the wound still healed”. Moreover, the “reduction in the expression of the collagen α1(I) gene” value in experiment [2] amounted to 5.3 fold. Besides, in experiment [3], the wound strength entry is “did not reduce wound strength”. For the same compound, the “expression of the collagen α1(I) gene” value in experiment [4] is recorded as “specifically decreased the expression”.
